For 13 molecules, IC50 results are on record in US11077100B2, “Tetrahydroquinoline derivatives as P2X7 receptor antagonists” (RaQualia Pharma Inc., priority 2017, dated 2021).

One experiment addresses human P2X7 (Homo sapiens (Human), UniProt Q99572). The experiment in a line: Human P2X7 functional assay (Ca2+ influx, Fluo-4, FDSS). Format: cell-based. As to conditions: antagonistic activity with respect to the human P2X7 receptor; BzATP final concentration 80 microM. The method in brief: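 Ca2+ influx was triggered with BzATP (80 μM final) after a 10-min room-temperature compound preincubation and monitored with Fluo-4 (ex 480/em 540 nm) on FDSS. The cells were HEK293 stably carrying FLAG-tagged human P2X7. Duplicate-averaged 7-point dose-responses gave IC50s.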

The target in the next experiment is rat P2X7 (Rattus norvegicus (Rat), UniProt Q64663). The experiment in a line: Rat P2X7 functional assay (Ca2+ influx, Fluo-4, FDSS). The settings on record: HEK293 cells stably expressing rat P2X7; BzATP final 10 microM; 7-point dose-response; read-out: Antagonistic activities with respect to the rat P2X7 receptor (IC50). Format: cell-based. The method in brief: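 IC50 derived from 7-point dose-response in duplicate, measuring inhibition of BzATP-evoked (final 10 microM) intracellular Ca2+ increase by Fluo-4 fluorescence on FDSS. Rat P2X7-HEK293 cells were exposed to compound for 10 min in the dark beforehand.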
Sequence of rat P2X7 (Q64663 whole entry): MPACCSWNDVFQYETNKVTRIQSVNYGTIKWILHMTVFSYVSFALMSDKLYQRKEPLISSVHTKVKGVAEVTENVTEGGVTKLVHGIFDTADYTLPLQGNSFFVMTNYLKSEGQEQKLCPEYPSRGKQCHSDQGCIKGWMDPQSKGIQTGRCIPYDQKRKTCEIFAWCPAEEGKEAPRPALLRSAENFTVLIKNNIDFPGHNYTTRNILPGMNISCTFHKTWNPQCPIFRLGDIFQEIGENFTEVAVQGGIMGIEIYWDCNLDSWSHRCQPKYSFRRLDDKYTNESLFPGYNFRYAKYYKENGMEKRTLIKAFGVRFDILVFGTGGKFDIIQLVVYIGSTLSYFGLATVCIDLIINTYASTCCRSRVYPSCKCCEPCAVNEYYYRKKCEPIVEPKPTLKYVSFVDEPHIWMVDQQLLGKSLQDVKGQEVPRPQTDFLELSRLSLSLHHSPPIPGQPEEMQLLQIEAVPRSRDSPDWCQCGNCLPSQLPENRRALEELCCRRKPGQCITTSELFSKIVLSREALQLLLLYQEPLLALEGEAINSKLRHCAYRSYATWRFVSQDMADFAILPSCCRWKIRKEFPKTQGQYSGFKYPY

Sequence of human P2X7 (Q99572 whole entry): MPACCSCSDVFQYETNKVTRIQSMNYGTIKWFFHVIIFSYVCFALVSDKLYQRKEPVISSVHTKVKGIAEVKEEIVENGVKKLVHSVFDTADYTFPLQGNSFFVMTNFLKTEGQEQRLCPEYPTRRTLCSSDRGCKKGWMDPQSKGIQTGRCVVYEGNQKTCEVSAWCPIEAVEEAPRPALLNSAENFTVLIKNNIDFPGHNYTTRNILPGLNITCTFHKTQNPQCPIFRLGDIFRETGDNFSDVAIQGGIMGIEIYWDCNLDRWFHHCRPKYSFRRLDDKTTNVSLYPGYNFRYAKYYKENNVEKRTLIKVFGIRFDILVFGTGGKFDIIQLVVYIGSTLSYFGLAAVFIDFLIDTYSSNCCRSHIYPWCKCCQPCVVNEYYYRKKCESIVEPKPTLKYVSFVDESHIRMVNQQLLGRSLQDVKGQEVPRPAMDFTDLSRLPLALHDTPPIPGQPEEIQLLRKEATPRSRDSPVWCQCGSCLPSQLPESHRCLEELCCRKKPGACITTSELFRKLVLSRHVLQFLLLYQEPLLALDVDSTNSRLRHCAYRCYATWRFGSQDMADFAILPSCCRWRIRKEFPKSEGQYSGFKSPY

Consider `O=C(NCc1ccc(Cl)cc1F)[C@]1(F)CC[C@@H](O)c2ncccc21` [Example 111, (5S,8R)-N-(4-chloro-2-fluorobenzyl)-5-fluoro-8-hydroxy-5,6,7,8-tetrahydroquinoline-5-carboxamide], for which the IC50 (as a rule, the midpoint of a concentration-inhibition curve) is 301 to 1000 nM against human P2X7 and under 1000 nM at rat P2X7.
In the case of `O=C(NCc1c(Cl)cc(Cl)cc1C(F)F)[C@]1(F)CC[C@@H](O)c2ncccc21` [Example 115], the results for the IC50 at human P2X7 and at rat P2X7 were under 50 nM and under 1000 nM, respectively.
On the same counts, the results for `O=C(NCc1c(F)cc(Cl)cc1Cl)[C@]1(F)CC[C@@H](O)c2ncccc21` [Example 117, (5S,8R)-N-(2,4-dichloro-6-fluorobenzyl)-5-fluoro-8-hydroxy-5,6,7,8-tetrahydroquinoline-5-carboxamide] are under 50 nM and under 1000 nM.
Taken in the same sequence, the figures for `O=C(NCc1ccc(Br)cc1Cl)[C@]1(F)CC[C@@H](O)c2ncccc21` [Example 118, (5S,8R)-N-(4-bromo-2-chlorobenzyl)-5-fluoro-8-hydroxy-5,6,7,8-tetrahydroquinoline-5-carboxamide] were under 50 nM and under 1000 nM.
Turning to `Cc1cccc(Cl)c1CNC(=O)[C@]1(F)CC[C@@H](O)c2ncccc21` [Example 122, (5S,8R)-N-(2-chloro-6-methylbenzyl)-5-fluoro-8-hydroxy-5,6,7,8,- tetrahydroquinoline-5-carboxamide], the IC50 on human P2X7 was 50 to 100 nM; on rat P2X7, under 1000 nM.
Consider `O=C(NCc1cccc(C(F)(F)F)c1Cl)[C@@]1(F)CC[C@@H](O)c2ncccc21` [Example 128, (5R,8R)-N-(2-chloro-3-(trifluoromethyl)benzyl)-5-fluoro-8-hydroxy-5,6,7,8-tetrahydroquinoline-5-carboxamide], for which the IC50 is under 50 nM on human P2X7 and under 1000 nM on rat P2X7.
On the same counts, the results for `O=C(NCc1cccc(C(F)(F)F)c1Cl)[C@]1(F)CC[C@H](O)c2ncccc21` [Example 129, (5S,8S)-N-(2-chloro-3-(trifluoromethyl)benzyl)-5-fluoro-8-hydroxy-5,6,7,8-tetrahydroquinoline-5-carboxamide] are under 50 nM and under 1000 nM.
Taken in the same sequence, the figures for `O=C(NCc1c(Cl)cc(Cl)cc1CO)[C@@]1(F)CC[C@@H](O)c2ncccc21` [Example 130, (5R,8R)-N-(2,4-dichloro-6-(hydroxymethyl)benzyl)-5-fluoro-8-hydroxy-5,6,7,8-tetrahydroquinoline-5-carboxamide] were under 50 nM and under 1000 nM.
Turning to `O=C(NCc1c(Cl)cc(Cl)cc1CO)[C@]1(F)CC[C@H](O)c2ncccc21` [Example 131, (5S,8S)-N-(2,4-dichloro-6-(hydroxymethyl)benzyl)-5-fluoro-8-hydroxy-5,6,7,8-tetrahydroquinoline-5-carboxamide], the IC50 at human P2X7 was under 50 nM; on rat P2X7, under 1000 nM.
On the same counts, the results for `O=C(NCc1ccc(Cl)cc1Cl)[C@@]1(F)CC[C@@H](O)c2ncccc21` [Example 132, (5R,8R)-N-(2,4-dichlorobenzyl)-5-fluoro-8-hydroxy-5,6,7,8-tetrahydroquinoline-5-carboxamide] are under 50 nM and under 1000 nM.
On the same counts, the results for `O=C(NCc1ccc(Cl)cc1Cl)[C@]1(F)CC[C@H](O)c2ncccc21` [Example 133, (5S,8S)—N-(2,4-dichlorobenzyl)-5-fluoro-8-hydroxy-5,6,7,8-tetrahydroquinoline-5-carb oxamide] are under 50 nM and under 1000 nM.
As to `O=C(NCc1ccc(F)cc1Cl)[C@@]1(F)CC[C@@H](O)c2ncccc21` [Example 134, (5R,8R)-N-(2-chloro-4-fluorobenzyl)-5-fluoro-8-hydroxy-5,6,7,8-tetrahydroquinoline-5-carboxamide], the results for the IC50 on human P2X7 and on rat P2X7 were 101 to 300 nM and under 1000 nM, respectively.
On to `O=C(NCc1ccc(F)cc1Cl)[C@]1(F)CC[C@H](O)c2ncccc21` [Example 135, (5S,8S)-N-(2-chloro-4-fluorobenzyl)-5-fluoro-8-hydroxy-5,6,7,8-tetrahydroquinoline-5-carboxamide], for which the IC50 at human P2X7 was under 50 nM; on rat P2X7 it was under 1000 nM.
